In patent US20070264198A1, “TUMOR NECROSIS AGENT” (Ajinomoto Co., Inc., priority 2001, published 2007):
Structures can show the parent of a compound that is named as a salt.

Experiments:
[1] = system: Sato lung carcinoma (SLC); assay: Anti-tumor effect against tumor grown in the transparent chamber; type: in vivo, rat; conditions: 10 mg/kg, tail vein, Donryu rats; state maintained for 48 hours after treatment
Protocol: (§1) Donryu rats (Crj-Donryu; supplied by Charles River Japan, Inc.), male.
(§2) Rat lung carcinoma, Sato lung carcinoma (SLC)
(§3) MTPVS powder was dissolved in physiological saline to a final concentration of 10 mg/ml. The solution (10 mg/kg) was administered through the tail vein of rats. Pentobarbital salt (Nembutal; manufactured by Abbott Laboratories) and enflurane (Ethrane; manufactured by Abbott Laboratories) was used as an anesthesia. Pentobarbital was intramuscularly administered at a dose of 25 mg/kg, 10 minutes prior to the experiment, and a suitable amount thereof was additionally administered at intervals of 90 minutes to maintain anesthesia during the experiment. The concentration of enflurane was maintained at 1% (1 L/min) using an anesthesia device for small animals.
The change of the tumor blood flow (hereinafter referred to as “TBF”) was observed through a biomicroscope. The dorsal skin of the rat was held with a transparent chamber under sterile conditions, and a small fragment of tumor was implanted thereon. […]
MTPVS used in a test group was administered through the tail vein by infusion pump. […] The blood vessels of tumor in the chamber were visualized with a halogen lump of 12 V and 100 W. The images of the microscope were recorded using a CCD video camera (CS-900; manufactured by Olympus Corporation), a television monitor and an S-VHS video recorder. […]

[2] = system: arteriole supplying nutrients to the tumor / tumor blood flow (SLC tumor); assay: Biomicroscopic observation of the change of tumor microcirculation; type: in vivo, rat; conditions: intravenous 10 mg/kg
Protocol: as §1, §2, §3
The change of the tumor blood flow (hereinafter referred to as “TBF”) was observed through a biomicroscope. The dorsal skin of the rat was held with a transparent chamber under sterile conditions, and a small fragment of tumor was implanted thereon. After the tumor started to grow thereto, the rat was tested as described in Jpn. J. Cancer Res. 81: 279-288, 1990, which is incorporated herein by reference. The chamber comprises two titanium flames of the same shape each having a circular quartz glass window with a thickness of 300 μm. After anesthesia, the rat with the chamber was put on a stage heated at 34.5° C. in the microscope.
MTPVS used in a test group was administered through the tail vein by infusion pump. […] and histological changes of tumor were directly observed through an optical microscope (Eclipse E800; manufactured by Nikon Corporation) with an eye lens of 10× and an object glass of 2× to 20×. The blood vessels of tumor in the chamber were visualized with a halogen lump of 12 V and 100 W. The images of the microscope were recorded using a CCD video camera (CS-900; manufactured by Olympus Corporation), a television monitor and an S-VHS video recorder.
At this time, in the blood vessel on the peripheral portion of the tumor, the plasma concentration was decreased, and large quantities of red blood cells were retained. These red blood cells were hemolyzed within 2 to 3 hours after MTPVS administration to form clog.
An inserted section on the left upper portion in FIG. 4 is an enlarged view of the blood vessels on the peripheral portion of the tumor. FIGS. 1 to 4 are based on photographs taken (length of a bar: 500 μm) by using an eye lens of 10× and an object glass of 4×. The inserted section is based on a photograph taken (length of a bar: 50 μm) by using an eye lens of 10× and an object glass of 20×.

SMILES: COc1ccc(/C=C\c2cc(OC)c(OC)c(OC)c2)cc1NC(=O)[C@@H](N)CO [MTPVS, (Z)-N-[2-methoxy-5-[2-(3,4,5-trimethoxyphenyl)vinyl]phenyl]-L-serinamide hydrochloride]
- time to necrosis of SLC tumor grown in the transparent chamber [1]: ≤ 25 h
- restoration of tumor blood flow after clog and hemolysis [2]: no longer restored
- time at which tumor blood flow stopped almost completely ([2]; after administration): 30 min
- time to hemolysis of retained red blood cells in blood vessel on peripheral portion of the tumor (clog formation) ([2]; after administration): 2 to 3 hours
- blood vessel structure in the normal tissues ([2]; normal tissues): maintained as normal
- contraction of the arteriole supplying nutrients to the tumor ([2]; rat SLC tumor in transparent chamber): markedly contracted
